From ChEMBL document CHEMBL4152385, “Synthesis, Receptor Affinity, and Antiallodynic Activity of Spirocyclic σ Receptor Ligands with Exocyclic Amino Moiety” (J Med Chem, 2018) come the findings set out here.

Structures are written as SMILES. Activity calls are given as the source filed them. The rule behind the calls is not given here.

What is called share remaining is the share of the starting amount still present when the sample was taken. As usually defined, the inhibition is the drop in the measured response relative to a control, in per cent. Usually Ki stands for the dissociation constant of the complex between target and ligand, obtained from inhibition or displacement. High values mean lower affinity, low ones higher affinity. Usually EC50 stands for the concentration giving half of the maximal effect.

One series in a line: in vitro. The following applies: mouse, liver microsomes. Background: Liver microsomes are a subcellular fraction often used to study metabolism.
The target of series [1] is 5-hydroxytryptamine receptor 2B (Homo sapiens) (UniProt P41595). Briefly: Inhibition of 5-HT2B receptor (unknown origin) at 1 uM relative to control.
5-hydroxytryptamine receptor 2B (Homo sapiens), sequence (P41595 whole entry): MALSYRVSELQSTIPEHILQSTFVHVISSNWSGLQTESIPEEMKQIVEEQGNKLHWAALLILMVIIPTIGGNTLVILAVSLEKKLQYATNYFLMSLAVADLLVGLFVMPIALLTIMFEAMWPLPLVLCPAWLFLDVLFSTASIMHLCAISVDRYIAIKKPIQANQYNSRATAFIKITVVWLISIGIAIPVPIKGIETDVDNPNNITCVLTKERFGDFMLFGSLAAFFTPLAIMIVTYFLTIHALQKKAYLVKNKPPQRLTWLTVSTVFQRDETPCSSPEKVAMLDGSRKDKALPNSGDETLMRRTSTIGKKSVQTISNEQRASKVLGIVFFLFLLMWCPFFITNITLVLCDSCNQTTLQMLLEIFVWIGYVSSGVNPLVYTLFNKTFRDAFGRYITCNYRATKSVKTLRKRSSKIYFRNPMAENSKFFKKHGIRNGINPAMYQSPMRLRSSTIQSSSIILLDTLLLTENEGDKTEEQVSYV
Series [2] relates to Mus musculus. As to the kind of experiment: Antiallodynic activity in CD1 mouse model of capsaicin-induced mechanical allodynia assessed as effect on paw withdrawal latency time at 32 mg/kg, sc administered 5 mins after sigma1 receptor agonist PRE-084 dosing followed by capsaicin addition and measured after 30 mins post compound dose. It is filed as functional, organism-based.

In series [3] the target is T1, 5-hydroxytryptamine receptor 1A (Homo sapiens) (UniProt P08908).
T1 sequence (whole entry): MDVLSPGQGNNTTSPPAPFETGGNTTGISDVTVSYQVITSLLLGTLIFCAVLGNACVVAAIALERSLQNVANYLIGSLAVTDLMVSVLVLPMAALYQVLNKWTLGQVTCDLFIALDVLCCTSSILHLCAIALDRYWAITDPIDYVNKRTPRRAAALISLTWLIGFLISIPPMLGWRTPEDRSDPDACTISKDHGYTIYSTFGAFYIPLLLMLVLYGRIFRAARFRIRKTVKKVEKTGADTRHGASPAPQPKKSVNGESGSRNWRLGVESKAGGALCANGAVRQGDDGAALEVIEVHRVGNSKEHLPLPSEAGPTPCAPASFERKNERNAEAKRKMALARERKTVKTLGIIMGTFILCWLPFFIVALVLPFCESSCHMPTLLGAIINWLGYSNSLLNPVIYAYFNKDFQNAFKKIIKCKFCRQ
As to the kind of experiment: Inhibition of 5-HT1A receptor (unknown origin) at 1 uM relative to control.

The target of series [4] is Glutamate receptor ionotropic, NMDA 2B (Homo sapiens, UniProt Q13224). Briefly: Displacement of [3H]ifenprodil from GluN2B (unknown origin) expressed in mouse L(tk-) cell membranes incubated for 120 mins by scintillation counting method. A general note: Loss of bound radioactivity is the signal in a displacement assay; it reports binding, not function.
Glutamate receptor ionotropic, NMDA 2B, sequence (Q13224 whole entry): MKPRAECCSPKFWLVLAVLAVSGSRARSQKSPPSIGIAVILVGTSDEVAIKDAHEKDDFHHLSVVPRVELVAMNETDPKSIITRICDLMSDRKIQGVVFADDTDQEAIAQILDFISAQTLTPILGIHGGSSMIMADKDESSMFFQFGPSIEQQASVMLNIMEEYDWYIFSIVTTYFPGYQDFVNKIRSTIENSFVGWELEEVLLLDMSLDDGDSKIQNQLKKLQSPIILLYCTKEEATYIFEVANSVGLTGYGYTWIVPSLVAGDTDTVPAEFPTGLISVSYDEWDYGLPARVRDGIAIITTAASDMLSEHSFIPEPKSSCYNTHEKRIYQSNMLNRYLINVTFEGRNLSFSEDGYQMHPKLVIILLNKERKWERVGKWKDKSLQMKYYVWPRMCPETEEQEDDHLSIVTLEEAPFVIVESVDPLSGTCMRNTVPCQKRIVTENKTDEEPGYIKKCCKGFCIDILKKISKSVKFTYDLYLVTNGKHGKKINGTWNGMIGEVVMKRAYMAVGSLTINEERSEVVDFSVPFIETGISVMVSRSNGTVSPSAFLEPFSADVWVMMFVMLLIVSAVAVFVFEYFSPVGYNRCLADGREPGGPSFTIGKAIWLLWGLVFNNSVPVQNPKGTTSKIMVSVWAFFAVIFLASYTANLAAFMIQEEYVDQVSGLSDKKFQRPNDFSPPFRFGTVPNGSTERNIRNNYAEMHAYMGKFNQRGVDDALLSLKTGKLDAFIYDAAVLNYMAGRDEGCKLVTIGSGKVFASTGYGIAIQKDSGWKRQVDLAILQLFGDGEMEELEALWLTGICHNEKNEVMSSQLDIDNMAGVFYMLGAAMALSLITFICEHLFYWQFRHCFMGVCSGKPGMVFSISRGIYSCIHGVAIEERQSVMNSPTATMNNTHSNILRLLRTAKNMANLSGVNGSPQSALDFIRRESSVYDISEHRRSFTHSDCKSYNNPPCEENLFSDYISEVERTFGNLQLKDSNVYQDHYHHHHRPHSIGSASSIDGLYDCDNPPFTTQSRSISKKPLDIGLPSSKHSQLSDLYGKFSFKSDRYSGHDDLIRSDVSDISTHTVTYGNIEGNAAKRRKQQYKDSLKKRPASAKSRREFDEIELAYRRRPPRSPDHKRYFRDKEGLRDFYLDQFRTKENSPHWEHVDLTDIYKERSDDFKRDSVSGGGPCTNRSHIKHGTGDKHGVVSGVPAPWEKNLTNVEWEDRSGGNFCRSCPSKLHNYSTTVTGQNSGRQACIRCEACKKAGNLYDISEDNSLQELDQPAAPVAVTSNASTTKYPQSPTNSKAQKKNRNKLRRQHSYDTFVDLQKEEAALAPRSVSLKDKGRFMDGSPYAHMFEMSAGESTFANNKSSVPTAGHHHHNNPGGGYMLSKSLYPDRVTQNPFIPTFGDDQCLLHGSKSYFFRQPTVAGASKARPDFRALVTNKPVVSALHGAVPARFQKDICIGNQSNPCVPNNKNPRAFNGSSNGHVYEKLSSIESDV
Series [5] has as its system Mus musculus. Briefly: Antiallodynic activity in CD1 mouse model of capsaicin-induced mechanical allodynia assessed as effect on paw withdrawal latency time at 2 to 64 mg/kg, sc administered 30 mins before capsaicin addition and measured at 30 secs intervals. It is filed as functional, organism-based.
The next series addresses Mu-type opioid receptor (Homo sapiens, UniProt P35372). Briefly: Agonist activity at human MOR expressed in CHOK1 cells assessed as reduction in forskolin-induced intracellular cAMP increase after 45 mins by HTRF analysis. It is filed as functional, cell-based.
Series [6] can be described thus: Displacement of [3H]-(+)-MK-801 from NMDA PCP binding site in pig brain cortex membrane incubated for 120 mins by scintillation counting method. It is filed as cell membranes, Sus scrofa.
Series [7] has as its target Histamine H1 receptor (Homo sapiens) (UniProt P35367). As to the kind of experiment: Inhibition of histamine H1 receptor (unknown origin) at 1 uM relative to control.
Series [8] has as its target Sodium-dependent dopamine transporter (Homo sapiens) (UniProt Q01959). As to the kind of experiment: Inhibition of DAT (unknown origin) at 1 uM relative to control.
Series [9] deals with T2, Sigma intracellular receptor 2 (Rattus norvegicus, UniProt Q5U3Y7).
T2 sequence (Q5U3Y7 whole entry): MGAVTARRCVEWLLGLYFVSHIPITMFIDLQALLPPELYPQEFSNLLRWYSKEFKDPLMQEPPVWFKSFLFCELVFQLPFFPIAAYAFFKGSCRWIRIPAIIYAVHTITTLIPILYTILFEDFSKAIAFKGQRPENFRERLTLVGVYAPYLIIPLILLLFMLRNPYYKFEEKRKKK
Briefly: Displacement of [3H]-di-o-tolylguanidine from sigma2 receptor in rat liver membranes incubated for 120 mins by scintillation counting method. It is filed as cell membranes, Membrane.

Series [10] deals with Sodium-dependent serotonin transporter (Homo sapiens) (UniProt P31645). Briefly: Inhibition of SERT (unknown origin) at 1 uM relative to control.
Sodium-dependent serotonin transporter (Homo sapiens), sequence (P31645 whole entry, looked up): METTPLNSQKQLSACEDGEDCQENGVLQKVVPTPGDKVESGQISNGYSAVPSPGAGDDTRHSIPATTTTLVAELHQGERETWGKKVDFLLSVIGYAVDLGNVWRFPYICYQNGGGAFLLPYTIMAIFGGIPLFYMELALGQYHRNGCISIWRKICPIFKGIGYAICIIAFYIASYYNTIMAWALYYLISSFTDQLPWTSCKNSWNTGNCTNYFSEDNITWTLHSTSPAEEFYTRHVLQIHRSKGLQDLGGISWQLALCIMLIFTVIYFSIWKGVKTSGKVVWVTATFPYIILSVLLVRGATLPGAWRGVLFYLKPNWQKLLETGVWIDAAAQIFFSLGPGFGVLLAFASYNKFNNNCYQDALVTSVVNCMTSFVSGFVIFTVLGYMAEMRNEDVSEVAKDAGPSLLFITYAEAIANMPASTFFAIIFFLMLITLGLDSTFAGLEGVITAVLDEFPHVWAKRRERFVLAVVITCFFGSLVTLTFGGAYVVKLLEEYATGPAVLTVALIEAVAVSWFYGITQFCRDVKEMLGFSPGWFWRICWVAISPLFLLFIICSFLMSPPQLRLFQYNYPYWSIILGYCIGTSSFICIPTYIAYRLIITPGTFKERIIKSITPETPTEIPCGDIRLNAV
The target of series [11] is Sodium-dependent noradrenaline transporter (Homo sapiens) (UniProt P23975). Briefly: Inhibition of NET (unknown origin) at 1 uM relative to control.
Sodium-dependent noradrenaline transporter (Homo sapiens), sequence (P23975 whole entry): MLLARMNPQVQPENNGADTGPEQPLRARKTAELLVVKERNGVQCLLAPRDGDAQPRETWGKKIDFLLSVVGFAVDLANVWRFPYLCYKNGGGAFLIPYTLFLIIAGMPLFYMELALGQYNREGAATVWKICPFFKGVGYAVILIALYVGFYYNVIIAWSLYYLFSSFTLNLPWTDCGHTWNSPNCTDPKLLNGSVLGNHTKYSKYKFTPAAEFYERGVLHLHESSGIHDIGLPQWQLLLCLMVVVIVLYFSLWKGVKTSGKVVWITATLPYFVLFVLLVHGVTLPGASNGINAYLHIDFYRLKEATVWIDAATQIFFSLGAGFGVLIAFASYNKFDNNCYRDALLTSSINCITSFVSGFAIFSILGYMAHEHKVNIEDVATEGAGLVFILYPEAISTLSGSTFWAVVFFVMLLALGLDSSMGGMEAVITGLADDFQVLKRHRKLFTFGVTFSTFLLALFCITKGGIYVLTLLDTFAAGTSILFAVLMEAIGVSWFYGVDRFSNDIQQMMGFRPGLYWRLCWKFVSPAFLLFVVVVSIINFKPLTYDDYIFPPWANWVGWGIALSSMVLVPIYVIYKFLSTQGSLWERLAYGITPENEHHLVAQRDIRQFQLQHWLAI
In series [12] the test system is Mus musculus. Briefly: Antiallodynic activity in CD1 mouse model of capsaicin-induced mechanical allodynia assessed as effect on paw withdrawal latency time at 8 to 16 mg/kg, sc administered 5 mins after sigma1 receptor agonist PRE-084 dosing followed by capsaicin addition and measured after 30 mins post compound dose. It is filed as functional, organism-based.

In series [13] the target is T3, Alpha-1A adrenergic receptor (Homo sapiens) (UniProt P35348).
T3 sequence (whole entry): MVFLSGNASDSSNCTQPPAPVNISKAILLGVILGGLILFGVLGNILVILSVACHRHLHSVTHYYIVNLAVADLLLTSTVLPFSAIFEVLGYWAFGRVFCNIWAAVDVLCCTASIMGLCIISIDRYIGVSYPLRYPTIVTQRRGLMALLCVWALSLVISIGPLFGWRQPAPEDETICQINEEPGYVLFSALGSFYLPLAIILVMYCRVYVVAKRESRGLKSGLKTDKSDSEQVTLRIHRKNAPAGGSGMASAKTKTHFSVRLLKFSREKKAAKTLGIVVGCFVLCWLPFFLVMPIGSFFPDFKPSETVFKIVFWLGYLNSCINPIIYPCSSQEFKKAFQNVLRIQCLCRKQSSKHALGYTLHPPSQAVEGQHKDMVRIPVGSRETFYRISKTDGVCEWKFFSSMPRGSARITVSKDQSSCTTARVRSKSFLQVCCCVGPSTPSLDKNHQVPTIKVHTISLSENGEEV
Briefly: Inhibition of alpha-1A adrenergic receptor (unknown origin) at 1 uM relative to control.

For series [14], the target named is T4, Sigma non-opioid intracellular receptor 1 (Cavia porcellus, UniProt Q60492).
T4 sequence (Q60492 whole entry): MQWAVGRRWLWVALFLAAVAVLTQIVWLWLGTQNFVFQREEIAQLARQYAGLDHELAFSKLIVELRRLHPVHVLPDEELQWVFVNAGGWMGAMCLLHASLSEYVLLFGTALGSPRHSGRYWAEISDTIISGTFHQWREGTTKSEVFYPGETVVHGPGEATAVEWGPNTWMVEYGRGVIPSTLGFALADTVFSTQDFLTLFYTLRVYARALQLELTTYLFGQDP
Series [15] concerns the target T4, Sigma non-opioid intracellular receptor 1. As to the kind of experiment: Displacement of [3H]-(+)-pentazocine from sigma1 receptor in guinea pig brain cortex membranes incubated for 120 mins by scintillation counting method. It is filed as cell membranes.

Histamine H1 receptor (Homo sapiens), sequence (P35367 whole entry): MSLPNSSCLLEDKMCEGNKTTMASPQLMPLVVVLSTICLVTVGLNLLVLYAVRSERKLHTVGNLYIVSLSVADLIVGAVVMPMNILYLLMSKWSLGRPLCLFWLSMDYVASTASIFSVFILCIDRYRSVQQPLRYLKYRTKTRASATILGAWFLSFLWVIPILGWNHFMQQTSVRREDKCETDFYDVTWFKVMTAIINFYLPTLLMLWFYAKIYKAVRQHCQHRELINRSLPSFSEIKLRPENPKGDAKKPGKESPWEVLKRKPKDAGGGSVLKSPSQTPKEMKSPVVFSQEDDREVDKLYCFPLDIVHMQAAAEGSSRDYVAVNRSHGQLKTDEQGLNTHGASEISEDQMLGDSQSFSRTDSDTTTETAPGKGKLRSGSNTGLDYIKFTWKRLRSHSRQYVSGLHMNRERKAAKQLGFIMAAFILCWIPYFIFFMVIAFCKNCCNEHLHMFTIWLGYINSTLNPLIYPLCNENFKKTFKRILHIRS
Sodium-dependent dopamine transporter (Homo sapiens), sequence (Q01959 whole entry): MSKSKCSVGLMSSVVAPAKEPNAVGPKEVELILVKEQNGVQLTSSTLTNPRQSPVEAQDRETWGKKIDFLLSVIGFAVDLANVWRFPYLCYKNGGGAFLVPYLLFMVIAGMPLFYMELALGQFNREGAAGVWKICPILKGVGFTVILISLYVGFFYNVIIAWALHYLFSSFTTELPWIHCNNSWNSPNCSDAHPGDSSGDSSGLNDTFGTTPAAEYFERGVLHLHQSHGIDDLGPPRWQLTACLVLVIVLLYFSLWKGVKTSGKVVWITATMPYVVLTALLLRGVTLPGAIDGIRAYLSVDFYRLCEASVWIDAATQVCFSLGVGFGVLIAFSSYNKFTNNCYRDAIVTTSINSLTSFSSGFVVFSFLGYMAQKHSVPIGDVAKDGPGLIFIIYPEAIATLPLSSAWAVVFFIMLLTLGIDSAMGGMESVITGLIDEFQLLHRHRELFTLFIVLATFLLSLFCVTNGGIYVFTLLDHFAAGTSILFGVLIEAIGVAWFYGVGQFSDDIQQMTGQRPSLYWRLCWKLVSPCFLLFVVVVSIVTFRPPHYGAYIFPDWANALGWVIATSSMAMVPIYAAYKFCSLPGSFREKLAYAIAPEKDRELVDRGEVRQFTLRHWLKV
Mu-type opioid receptor, sequence (P35372 whole entry): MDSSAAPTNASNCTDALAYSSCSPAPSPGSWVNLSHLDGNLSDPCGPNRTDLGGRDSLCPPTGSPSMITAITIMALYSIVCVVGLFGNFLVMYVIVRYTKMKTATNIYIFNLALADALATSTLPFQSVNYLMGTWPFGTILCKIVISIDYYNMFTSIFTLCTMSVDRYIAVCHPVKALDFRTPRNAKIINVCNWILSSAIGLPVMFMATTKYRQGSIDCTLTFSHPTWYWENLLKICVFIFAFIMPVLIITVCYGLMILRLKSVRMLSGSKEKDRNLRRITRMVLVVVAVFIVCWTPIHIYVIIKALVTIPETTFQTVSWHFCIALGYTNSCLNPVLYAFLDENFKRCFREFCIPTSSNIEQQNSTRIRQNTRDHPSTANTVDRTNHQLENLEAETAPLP
Description for in vitro: Metabolic stability in mouse liver microsomes assessed as compound remaining at 25 uM after 1 hr in presence of NADPH by LC-MS analysis

As to `FCC[C@@H]1Cc2ccccc2C2(CCC(N3CCN(C4CCCCC4)CC3)CC2)O1` (some centres not stated), the fraction remaining at 1 h, 25 µM in the series “in vitro” came out at 71.8%. Further, the inhibition in series [1] was < 50%; in series [3], 62%; in series [7], < 50%; in series [8], < 50%; in [10], < 50%; in [11], < 50%. For the same compound, in series [13], the inhibition was < 50%. Moreover, the outcome in the series on Mus musculus [2] and with Mus musculus [5] was Active. Also, the Ki in [4] was 65 nM; in series [6] it was > 1000 nM; in series [9], 45 nM. For the same compound, on Mu-type opioid receptor, the EC50 is 1760 nM. Besides, in the series on Mus musculus [12], the outcome was inactive.

Take `Fc1ccc(-n2cc(CCCCN3CCC4(CC3)OCc3ccccc34)c3ccccc32)cc1` [SIRAMESINE]: the Ki in series [14] and in series [15] was 17 nM each time.
